Results reported in PMC8617681 (Pharmaceuticals, 2021).
Read-outs that look alike come from different tables or passages of the source.

Experiments:
[1] = test system: RET fusion-positive cancers; conditions: clinical phase 1 study; cited from earlier work
[2] = 4 h main pharmacokinetic experiment in wild-type, Abcb1a/1b-/-, Abcg2-/- and Abcb1a/1b;Abcg2-/- mice; assay type: in vivo; conditions: 10 mg/kg oral, 4 h main experiment; for Cmax / Tmax / concentration at 4 h / AUC(0-t): mouse; for Cmax / Tmax / AUC(0-t): plasma; for concentration at 4 h / AUC(0-t): male, po, 10 mg/kg; for AUC(0-t): read-out: AUC0–4h
Method: Mice were housed and handled according to institutional guidelines complying with Dutch and EU legislation. All experimental animal protocols were evaluated and approved by the institutional animal care and use committee. Wild-type, Abcb1a/1b^-/-, Abcg2^-/-, Abcb1a/1b; Abcg2^-/-, Slco1a/1b^-/- male mice, and Cyp3a^-/- and Cyp3aXAV female mice, all of a >99% FVB genetic background, were used between 9 and 16 weeks of age. […] All experimental animal protocols (WP9450, 9669, 9760), including power calculations, designed under the nationally approved DEC/CCD project AVD301002016595, were evaluated and approved by the institutional animal care and use committee of The Netherlands Cancer Institute. […]
For the 4 h transporter experiments, tail-vein blood samples were collected at 0.125, 0.25, 0.5, 1, and 2 h time points after oral administration, respectively. For the CYP3A 8 h experiments, tail-vein blood sampling was performed at 0.25, 0.5, 1, 2, and 4 h, respectively. While for elacridar inhibition experiments, tail-vein blood samples were collected at 0.125, 0.25, 0.5, and 1 h time points after oral administration, respectively. Blood sample collection was performed using microvettes containing dipotassium EDTA. At the last time point in each experiment (2, 4 or 8 h), mice were anesthetized with 5% isoflurane and blood was collected by cardiac puncture. Blood samples were collected in Eppendorf tubes containing heparin as an anticoagulant. The mice were then sacrificed by cervical dislocation and brain, liver, kidney, lung, small intestine and testis were rapidly removed. Plasma was isolated from the blood by centrifugation at 9000× g for 6 min at 4 °C, and the plasma fraction was collected and stored at −30 °C until analysis. Organs were homogenized with 4% (w/v) bovine serum albumin and stored at −30 °C until analysis.
Pharmacokinetic parameters were calculated by noncompartmental methods using the PK solver software. The area under the plasma concentration–time curve (AUC) was calculated using the trapezoidal rule, without extrapolating to infinity. The peak plasma concentration (Cmax) and the time of maximum plasma concentration (Tmax) were estimated from the original (individual mouse) data. One-way analysis of variance (ANOVA) was used when multiple groups were compared and the Tukey post hoc correction was used to accommodate multiple testing. The two-sided unpaired Student’s t-test was used when treatments or differences between two specific groups were compared using the software GraphPad Prism 8 (GraphPad Software Inc., La Jolla, CA, USA). All the data were log-transformed before statistical tests were applied. Differences were considered statistically significant when p < 0.05. All data are presented as geometric mean ± SD.

[3] = patients; cited from earlier work
[4] = FVB (Abcb1a/1b-/-), male Abcb1a/1b-/- mice
[5] = FVB (Abcb1a/1b;Abcg2-/-), male Abcb1a/1b;Abcg2-/- mice
[6] = FVB (Abcg2-/-), male Abcg2-/- mice
[7] = FVB (wild-type), male wild-type mice

## COc1ccc(CN2C3CC2CN(c2ccc(-c4cc(OCC(C)(C)O)cn5ncc(C#N)c45)cn2)C3)cn1 [selpercatinib]
[1]
  overall response rate: 77%
[2]; [4]
  Cmax: 10300 ng/mL
  Tmax: 1.8 ± 1.3 h
[2]; [5]
  Cmax: 11000 ng/mL
  Tmax: 1.5 ± 1.3 h
  AUC(0-t): 39000 ng·h/mL
[2]; [6]
  Cmax: 11400 ng/mL
  Tmax: 1.4 ± 0.74 h
[2]; [7]
  Cmax: 6910 ± 761 ng/mL
  Tmax: 1.6 ± 1.4 h
[2]; male Abcb1a/1b-/- mice
  SIC percentage of dose: 1.1 ± 0.3%
[2]; male Abcb1a/1b;Abcg2-/- mice
  SIC percentage of dose: 0.69 ± 0.52 %
[2]; male Abcg2-/- mice
  SIC percentage of dose: 1.6 ± 0.7 %
[2]; male wild-type mice
  SIC percentage of dose: 2.3 ± 0.9%
[2]; FVB (Abcb1a/1b-/-), brain, male Abcb1a/1b-/- mice, read-out: Cbrain
  concentration at 4 h: 2000 ± 233 ng/g
[2]; FVB (Abcb1a/1b;Abcg2-/-), brain, male Abcb1a/1b;Abcg2-/- mice, read-out: Cbrain
  concentration at 4 h: 4260 ± 853 ng/g
[2]; FVB (Abcg2-/-), brain, male Abcg2-/- mice, read-out: Cbrain
  concentration at 4 h: 418 ± 102 ng/g
[2]; FVB (wild-type), brain, male wild-type mice, read-out: Cbrain
  concentration at 4 h: 420 ± 66 ng/g
[2]; FVB, liver, male Abcb1a/1b-/- mice, read-out: CLiver
  concentration at 4 h: 34000 ng/g
[2]; FVB, liver, male Abcb1a/1b;Abcg2-/- mice, read-out: CLiver
  concentration at 4 h: 23200 ng/g
[2]; FVB, liver, male Abcg2-/- mice, read-out: CLiver
  concentration at 4 h: 19300 ng/g
[2]; FVB, liver, male wild-type mice, read-out: CLiver
  concentration at 4 h: 25700 ng/g
[2]; FVB, male Abcb1a/1b-/- mice
  AUC(0-t): 37000 ng·h/mL
[2]; FVB, male Abcg2-/- mice
  AUC(0-t): 39100 ng·h/mL
[2]; FVB, male wild-type mice
  AUC(0-t): 23700 ng·h/mL
[2]; FVB, small intestine contents, male Abcb1a/1b-/- mice, read-out: CSIC (small intestine contents concentration)
  concentration at 4 h: 69400 ng/g
[2]; FVB, small intestine contents, male Abcb1a/1b;Abcg2-/- mice, read-out: CSIC (small intestine contents concentration)
  concentration at 4 h: 27400 ng/g
[2]; FVB, small intestine contents, male Abcg2-/- mice, read-out: CSIC (small intestine contents concentration)
  concentration at 4 h: 91700 ng/g
[2]; FVB, small intestine contents, male wild-type mice, read-out: CSIC (small intestine contents concentration)
  concentration at 4 h: 98100 ng/g
[2]; FVB, small intestine, male Abcb1a/1b-/- mice, read-out: CSI (small intestine tissue concentration)
  concentration at 4 h: 17000 ng/g
[2]; FVB, small intestine, male Abcb1a/1b;Abcg2-/- mice, read-out: CSI (small intestine tissue concentration)
  concentration at 4 h: 11600 ng/g
[2]; FVB, small intestine, male Abcg2-/- mice, read-out: CSI (small intestine tissue concentration)
  concentration at 4 h: 13000 ng/g
[2]; FVB, small intestine, male wild-type mice, read-out: CSI (small intestine tissue concentration)
  concentration at 4 h: 21600 ng/g
[2]; FVB, testis, male Abcb1a/1b-/- mice, read-out: Ctestis
  concentration at 4 h: 3480 ± 634 ng/g
[2]; FVB, testis, male Abcb1a/1b;Abcg2-/- mice, read-out: Ctestis
  concentration at 4 h: 8330 ± 935 ng/g
[2]; FVB, testis, male Abcg2-/- mice, read-out: Ctestis
  concentration at 4 h: 1050 ± 192 ng/g
[2]; FVB, testis, male wild-type mice, read-out: Ctestis
  concentration at 4 h: 811 ± 148 ng/g
[3]
  AUC0–24h: 51,600 ng/mL*h
  average Cmax: 2980 ng/mL
